# Results reported in patent US20090263470A1, “Vaccine Compositions Comprising Virosomes and a Saponin Adjuvant” (priority 2004, published 2009).
# Where two headings read alike, the source gives them in different places.
# Legend:
# [1] = test system: red blood cells; details: OD at 540 nm
# [2] = test system: red blood cells; experiment: Lytic activity of QS21 alone versus QS21 in the Inflexal V formulation against red blood cells, OD at 540 nm; format: cell-based; details: equivalent of 2.5 μg QS21 in 900 μl PBS pH 7.4 + 100 μl red blood cells, 30 minutes at RT
# Protocol: 500 μl Inflexal V® vaccine, has been adjuvanted by the addition of 50 μg QS21. The resulting composition of this mixture is: +/−117 μg of Lecithin, 45 μg HA, 50 μg QS21 in 525 μl. The lytic activity of QS21 in this formulation has been compared to the lytic activity of QS21 alone.
# Practically, a volume of the formulation “Inflexal V+QS21” containing the equivalent of 2.5 μg of QS21 is added to PBS pH 7.4 to reach a final volume of 900 μl. In parallel, 2.5 μg QS21 is taken and also diluted to 900 μl with PBS.
# 100 μl of red blood cells (10× diluted) are added to those 2 samples as described above. Samples are let for 30 minutes at RT. After centrifugation at 2000 rpm, the OD of the supernatant is red at 540 nm.
# [3] = QS21 injected parenterally as a free molecule; cited from earlier work
substance,measurement,setting,value
QS21,OD,[1]; 1 μg QS21,0.217
same,OD,[1]; 1.5 μg QS21,0.631
same,OD,[1]; 2.5 μg QS21,0.891
same,OD,[2],1.63
same,injection site observation,[3],necrosis
